Source: patent publication US5972883A, “Method for the treatment of neurodegenerative diseases by administering VIP, an analogue, fragment or a conjugate thereof” (Yeda Research and Development Co. Ltd., priority 1993, dated 1999)
“And” between values parts separate entries of the source, which are not always exact repeats. Equal entries are not always repeated. “Also recorded” adds a separate entry of the source.

How the values were obtained:
[1] = system: electrically blocked neurons (mouse spinal cord neurons); assay type: cell-based
[2] = system: Sprague Dawley rats; test: Single dose toxicity, intravenously injected (tail vein); assay type: in vivo, rat
Source text: The single dose toxicity of St-Nle^17 -VIP injected intravenously, in to the tail vein, was investigated in 4 groups of six male and six female rats (Sprague Dawley (S.D.) strain, purchased from Levinstein, Yokneam, Israel).

[3] = system: Sprague Dawley rats; test: Repeated dose toxicity, topically applied, 13 weeks
[4] = Pharmacological experimentation: biologically active dose; assay type: in vivo; details: rat
Description: The logic of the dose design was as follows: pharmacological experimentation has shown that the biologically active dose is 7 μg per rat. The dose of 1000× the biologically active dose was chosen for this experiment.

[5] = system: learning and memory in AF64A-treated rats; test: Morris water maze, AF64A animal model of Alzheimer, nasal drug administration; assay type: in vivo, rat; details: daily nasal administration (St-Nle17-VIP 70 μg/40 μl; peptide 6 50 μg/40 μl)
Description: 8 Male rats were all treated with AF64A as described above. 10 days after AF64A administration 5 animals received daily nasal administration of St-Nle^17 -VIP dissolved in 10% sefsol and 40% isopropanol at a concentration of 70 μg/40 μl (20 μl administered through each nostril). 3 Animals received daily nasal administration of 50 μg/40 μI of peptide 6, (20 μl/nostril) dissolved in 10% sefsol and 40% isopropanol. 6 Control animals received daily nasal administration of 10% sefsol and 40% isopropanol at an amount of 40 μl/day (20 μl nostril). The animals were partially anesthetized by diethylether prior to nasal administration. Both control and test animals were daily treated with 50,000 units of durabiotic antibiotics to avoid infection. Following 7 days of nasal administration behavioral tests were conducted on both control and test animals for an additional 8 days. […]
(§1) Rats were placed in a circular pool, 1.26 m in diameter, 0.2 m deep, equipped with a clear plexiglas column, with a 13.3 cm platform reaching just below the surface of the water (22-24° C.). […] The latency of reaching the platform was recorded for each rat (in seconds) and the changes over days of training were graphed, which reflect learning and memory.

[6] = system: learning and memory in old rats; test: Learning and memory in old animals (water pool), nasal administration; assay type: in vivo, rat; details: rats aged 18-20 months, nasal 100 μg/40 μl/day
Description: 6 Male rats aged 18-20 months were divided into hvo groups. Group 1 received daily nasal administrations of St-Nle^17 -VIP dissolved in 10% sefsol at 40% isopropanol at a dose of 100 μg/40 μl/day (20 μl/nostril). Control animals were treated with daily nasal administration of 40 μl/day of 10% sefsol and 40% isopropanol (20 μl/nostril). The administration was carried out after partial anesthetization by diethylether. Animals were thus treated for 7-19 days and then were tested by placing them in a water pool as described above.

[7] = system: learning and memory in AF64A-injected rats; test: Morris water maze, AF64A animal model of Alzheimer, I.C.V. drug administration; assay type: in vivo, rat; details: 100 ng I.C.V. daily
Description: 13 Male rats were injected intracerebroventricularly (I.C.V.) at a rate of 0.21 μl/min, using plastic tubing (PE-20) attached to 25G needle. 5 rats serving as control received an injection of saline (2 μl/side), 8 other animals received injections of ethylcholine aziridium (AF64A) (3 nmol/2 μl/side). AF64A is an inducer of cholinergic hypofunctions which mimics some of the cholinergic hypofunction reported in Alzheimer's disease and is used for preparing animal models of Alzheimer^(22).
Animals were cannulated following injection to allow I.C.V. drug application and left to recover for a week. Learning and memory tests were conducted using the swim maze test. The 8 animals injected with AF64A were divided into two equal groups and were thereafter injected daily with either saline or 100 ng I.C.V. of St-Nle^17 -VIP. The five control rats (see above) were injected with saline. Following seven injection days, behavioral assays were conducted for an additional 14 days on both control and test animals. […]
as §1

[8] = system: Neurons from rat cerebral cortex treated with β-amyloid peptide fragment 25-35; test: Survival of neurons treated with fragment 25-35 of β-amyloid peptide
[9] = system: VIP receptor; test: Affinity studies: displacement of radiolabeled VIP on cerebral cortical astrocytes; assay type: binding
Description: (a) Cerebral cortical astrocytes were obtained and cultured as described before^16,17). Binding studies were performed on intact cells, 5-7 days after replating at 4° C. in phosphate buffered saline containing 0.1% bovine serum albumin. Cells were divided into two groups. Group 1 was incubated with varying concentrations of St-VIP and Group 2 was incubated with varying concentrations of St-Nle^17 -VIP. After 30 min. incubation with the VIP analogue, 50 pM of ^125 -VIP^(14) was added and incubated for an hour. The media was then removed and cells were washed three times by rapid addition and removal of 1 ml phosphate buffered saline at 4° C. The labeled cells were then dissolved in 0.2 N NaOH and transferred for radioactivity counting by an automatic gamma counter (Wallac 1470 Wizard).

[10] = Stability of test material; assay type: physicochemical
[11] = system: Sprague Dawley rats; test: Single dose toxicity, orally administered; assay type: in vivo, rat
Source text: The single dose toxicity of St-Nle^17 -VIP administered orally was investigated in 4 groups of six male and six female rats (Sprague Dawley (S.D.) strain, purchased from Levinstein, Yokneam, Israel.)

[12] = Biodistribution following intranasal administration of radioiodinated peptide; assay type: in vivo, rat; details: rats
Description: St-Nle^17 -VIP was labeled with radioactive iodine and 3×10^6cpn/2 μl/rat of the labeled substance were applied intranasally to 250-300 g rats. Animals were sacrificed 15 mins. following drug administration.
Radioactive tissue samples were then homogenized and subjected to centrifugation (5,400×g for 25 mins.). Supernatants were then subjected to HPLC analysis against St-Nle^17 -VIP as a marker. Elution was carried out using acetonitrile gradient at fraction 30. Samples were then weighed and monitored for radioactivity in a gamma counter. To assess for the integrity of the incorporated St-Nle^17 -VIP radioactive tissue, supernatants were subjected to HPLC analysis. Radioactive tissue samples were hornogenized, subjected to centrifugation and supernatnants analyzed by HPLC fractionation against St-Nle-VIP as a marker (eluting using an acetonitrile gradient at fraction 30).

[13] = system: untreated neurons (cerebral cortical cultures); test: Survival of untreated neurons (naturally occurring death), cerebral cortical cultures; assay type: cell-based; details: untreated rat cerebral cortical cultures
Description: (a) Cerebral cortical cultures were prepared by a slight modification of the techniques described by Forsythe and Westbrook, (a. Physiol. Lond. 396:515 (1988)), in which cerebral cortex was used instead of hippocampus and newborn rats were utilized instead of E16 mice. After nine days growth in vitro, the cultures were given a complete change of medium and treated with serial dilutions of either peptide 1, 2 or 6 in order to determine whether these peptides were effective in protecting neurons from naturally occurring death. Cerebral cortical cells were counted as above, however, only 40 fields per plate were counted comprising an area of 20 mm^2.
(a) Cells were prepared as described in Example 6. After nine days growth in vitro, the cultures were given a complete change of medium and treated with serial dilutions of peptide 5 or of peptide 3 in the presence and in the absence of 10^-8 M of a VIP antagonist described in detail in U.S. Pat. No. 5,217,953. One treatment was given at the beginning of a five day test period. Cell counts were performed on 100 fields, with a total area of 50 mm^2. Neurons were counted without knowledge of treatment.

[14] = i.v., 7 μg/rat + vehicle (group 3)
[15] = i.v., 7,000 μg/rat + vehicle (group 4)
[16] = displacement of radiolabeled VIP, intact astrocytes, 4° C.

For `CCCC[C@H](NC(=O)[C@H](CCC(N)=O)NC(=O)[C@H](CCCCN)NC(=O)[C@H](CCCNC(=N)N)NC(=O)[C@H](CC(C)C)NC(=O)[C@H](CCCNC(=N)N)NC(=O)[C@@H](NC(=O)[C@H](Cc1ccc(O)cc1)NC(=O)[C@H](CC(N)=O)NC(=O)[C@H](CC(=O)O)NC(=O)[C@@H](NC(=O)[C@H](Cc1ccccc1)NC(=O)[C@@H](NC(=O)[C@H](C)NC(=O)[C@H](CC(=O)O)NC(=O)[C@H](CO)NC(=O)[C@@H](N)Cc1c[nH]cn1)C(C)C)[C@@H](C)O)[C@@H](C)O)C(=O)N[C@@H](C)C(=O)N[C@H](C(=O)N[C@@H](CCCCN)C(=O)N[C@@H](CCCCN)C(=O)N[C@@H](Cc1ccc(O)cc1)C(=O)N[C@@H](CC(C)C)C(=O)N[C@@H](CC(N)=O)C(=O)N[C@@H](CO)C(=O)N[C@H](C(=O)N[C@@H](CC(C)C)C(=O)N[C@@H](CC(N)=O)C(N)=O)[C@@H](C)CC)C(C)C` [Nle^17 -VIP, Norleucine^17 -VIP], the “potency relative to native VIP in protecting electrically blocked cells from death” value [1] was “about 10 fold”.
For “Stearoyl-noricucine^17 -VIP [St-Nle^17 -VIP]”, the “animals with necrotic reaction at the site of injection (tail skin)” value [2, 14] was 58%, the mortality [2, 14] was “No mortality occurred in groups 1 and 3” and the “animals with necrotic reaction at the site of injection (tail skin)” value [2, 15] was “all the animals”. For the same molecule, the mortality [2, 15] was “Seven rats (3 male and 4 female out of 12) died”, the “time of death after administration” value [2, 15] was no more than 3 h and the “other side effects in surviving rats” value ([2]; i.v., all groups) was “No other side effects were observed”. The “body weight gain versus vehicle control” value ([2]; i.v., two weeks study period) was “increased weight gain”, the “acute intravenous LD50, combined males and females” value ([2]; i.v., with vehicle, combined males and females) was “less than 7,000 μg” and the “acute intravenous LD50, males” value ([2]; i.v., with vehicle, male rats) was 7,000 μg/male rat. The “body weight gain or food consumption” value ([3]; topical daily) was “No significant differences were detected”, the “clinical pathology (hematology, clinical chemistry)” value ([3]; topical daily) was “No dose related or sex related biologically meaningful treatment effects were detected” and the organ weight analysis ([3]; topical daily) was “No treatment related differences were noted”. For the same molecule, the adverse effects ([3]; topical daily for 13 weeks, 7, 700, 3500 μg) was “No dose related adverse effects were detected; also recorded: did not cause any serious adverse effects at any of the dosages tested”, the mortality ([3]; topical daily, 7, 700, 3500 μg) was “No mortality associated with drug application was noted” and the biologically active dose [4] was 7 μg per rat. For the same molecule, the “learning and memory (latency of reaching the platform)” value (“learning and memory” for short) [5] was “control animals (.quadrature.) show smaller improvement in the latency of reaching the platform”, the “learning and memory” value [6] was “showed a greater improvement in the latency of reaching the platform over time as compared to control untreated animals” and the “learning and memory” value [7] was “showed recovery of the learning and memory abilities, essentially similar to that of control animals”. For the same molecule, the “most effective protective concentration (peak activity) against β-amyloid associated death” value ([8]; 25 μM β-amyloid fragment 25-35) was 10^-13 M, the “protection of neurons from β-amyloid peptide fragment toxicity” value ([8]; 25 μM β-amyloid fragment 25-35, 5 days) was “able to protect neurons from the toxic effect of β-amyloid peptide fragment at all concentrations tested” and the “concentrations protecting also against naturally occurring cell death” value ([8]; FIG. 7 experiment) was 10^-10 M and 10^-9 M. The “affinity to the high affinity receptor relative to VIP” value ([9]; VIP value from reference 19) was “about 100 fold”, the “affinity relative to St-VIP, high concentration zone (low affinity zone)” value [9, 16] was 10 fold and the “affinity relative to St-VIP, low concentration (high affinity) zone” value [9, 16] was 10 fold. The “stability, powder” value [10] was “for a year”, the “potency relative to native VIP in protecting electrically blocked cells from death” value [1] was “about 100 fold” and the “peak of active concentrations” value ([1]; 1 μM tetrodotoxin) was “broadening of the peak of active concentrations”. The “body weight gain and food consumption” value ([11]; oral single dose) was “normal body weight gain”, the side effects ([11]; oral single dose) was “No necrotic reactions, or any other side effects were observed” and the mortality ([11]; oral single dose, up to 7000 μg/rat) was “No mortality occurred”. For the same molecule, the “acute oral LD50” value ([11]; oral, rat) was “greater than 7000 μg/rat”, the “distribution to brain after nasal administration” value ([12]; 15 mins. after intranasal administration) was “able to reach the brain” and the “integrity of peptide in tissue (HPLC of radioactive supernatants)” value ([12]; intranasal) was “reaches its target organs in an active, intact form”.
In the case of “fragment 25-35 of β-amyloid peptide: β-amyloid peptide fragment comprising amino acids in positions 25 to 35, toxic to neurons in culture (GSNKGAIIGLM; Amyloid-beta protein 42; UniProt P05067 696-706, looked up, fragment) [reference compound]”, the “number of living neurons per tested area” value ([8]; 25 μM fragment alone, 150 without fragment) was 42 neurons.
In the case of “St-His-Ser-Asp-Gly-Ee-Phe-Thr-Asp-Ser-Tyr-Ser-Arg-Tyr-Arg-amide (stearyl-HSDGIFTDSYSRYR-NH2; not fully specified (residue 5); printed as St-His-Ser-Asp-Gly-Ee-Phe-Thr-Asp-Ser-Tyr-Ser-Arg-Tyr-Arg-amide) [peptide 1]”, the “concentrations protecting cells from naturally occurring death” value [13] was “above 10^-8 M”.
